Measured values: the NIST ThermoML archive (doi:10.1021/je0498560)

Experiment: xn = mol fraction of the nth substance listed
Settings: Liquid

C[N+](=O)[O-] [nitromethane] + O=C=O
Settings | molar volume [m3/mol]
298 K, x2 = 0.12 | 4.93e-05
298 K, x2 = 0.238 | 4.83e-05
298 K, x2 = 0.346 | 4.76e-05
298 K, x2 = 0.457 | 4.74e-05
298 K, x2 = 0.552 | 4.74e-05
298 K, x2 = 0.678 | 4.71e-05
298 K, x2 = 0.747 | 4.77e-05
298 K, x2 = 0.81 | 4.78e-05
298 K, x2 = 0.855 | 4.87e-05
298 K, x2 = 0.876 | 4.91e-05
313 K, x2 = 0.048 | 5.88e-05
313 K, x2 = 0.119 | 5.71e-05
313 K, x2 = 0.183 | 5.56e-05
313 K, x2 = 0.254 | 5.51e-05
313 K, x2 = 0.32 | 5.45e-05
313 K, x2 = 0.385 | 5.37e-05
313 K, x2 = 0.479 | 5.32e-05
313 K, x2 = 0.546 | 5.23e-05
313 K, x2 = 0.627 | 5.09e-05
313 K, x2 = 0.727 | 4.99e-05
313 K, x2 = 0.791 | 5.08e-05

CC(C)=O [acetone] + O=C=O
323 K
Settings | molar volume [m3/mol]
x2 = 0.056 | 7.37e-05
x2 = 0.14 | 7.18e-05
x2 = 0.251 | 6.75e-05
x2 = 0.335 | 6.67e-05
x2 = 0.432 | 6.42e-05
x2 = 0.53 | 6.23e-05
x2 = 0.603 | 6.1e-05
x2 = 0.648 | 6.01e-05
x2 = 0.695 | 5.71e-05
x2 = 0.73 | 5.66e-05
x2 = 0.76 | 5.74e-05
x2 = 0.787 | 5.81e-05

CN1CCCC1=O [N-methylpyrrolidone] + O=C=O
313 K
Settings | molar volume [m3/mol]
x2 = 0.104 | 8.91e-05
x2 = 0.19 | 8.48e-05
x2 = 0.242 | 8.26e-05
x2 = 0.311 | 7.9e-05
x2 = 0.374 | 7.57e-05
x2 = 0.437 | 7.32e-05
x2 = 0.499 | 6.98e-05
x2 = 0.565 | 6.66e-05
x2 = 0.629 | 6.23e-05
x2 = 0.725 | 5.67e-05
x2 = 0.816 | 5.34e-05

CC(C)O [propan-2-ol] + O=C=O
313 K
Settings | molar volume [m3/mol]
x2 = 0.018 | 7.97e-05
x2 = 0.065 | 7.88e-05
x2 = 0.133 | 7.62e-05
x2 = 0.21 | 7.45e-05
x2 = 0.3 | 7.17e-05
x2 = 0.401 | 6.85e-05
x2 = 0.51 | 6.4e-05
x2 = 0.639 | 6.06e-05
x2 = 0.725 | 5.99e-05
x2 = 0.788 | 6.01e-05

Cc1ccccc1 [toluene] + O=C=O
323 K
Settings | molar volume [m3/mol]
x2 = 0.091 | 0.0001014
x2 = 0.175 | 9.72e-05
x2 = 0.26 | 9.21e-05
x2 = 0.335 | 8.76e-05
x2 = 0.408 | 8.37e-05
x2 = 0.48 | 8.02e-05
x2 = 0.524 | 7.82e-05
x2 = 0.583 | 7.22e-05
x2 = 0.644 | 6.72e-05
x2 = 0.715 | 6.46e-05
x2 = 0.764 | 6.32e-05
x2 = 0.821 | 6.23e-05
x2 = 0.865 | 6.26e-05
x2 = 0.883 | 6.35e-05

ClCCl [dichloromethane] + O=C=O
313 K
Settings | molar volume [m3/mol]
x2 = 0.044 | 6.51e-05
x2 = 0.114 | 6.32e-05
x2 = 0.188 | 6.24e-05
x2 = 0.269 | 6.13e-05
x2 = 0.444 | 5.87e-05
x2 = 0.533 | 5.74e-05
x2 = 0.644 | 5.64e-05
x2 = 0.738 | 5.32e-05
x2 = 0.83 | 5.42e-05
x2 = 0.859 | 5.82e-05

OCC(F)(F)F [2,2,2-trifluoroethanol] + O=C=O
Settings | molar volume [m3/mol]
298 K, x2 = 0.132 | 6.39e-05
298 K, x2 = 0.225 | 6.3e-05
298 K, x2 = 0.358 | 5.95e-05
298 K, x2 = 0.48 | 5.81e-05
298 K, x2 = 0.599 | 5.71e-05
298 K, x2 = 0.704 | 5.51e-05
298 K, x2 = 0.749 | 5.51e-05
298 K, x2 = 0.795 | 5.43e-05
298 K, x2 = 0.842 | 5.49e-05
298 K, x2 = 0.888 | 5.48e-05
298 K, x2 = 0.927 | 5.5e-05
313 K, x2 = 0.16 | 6.1e-05
313 K, x2 = 0.23 | 6.13e-05
313 K, x2 = 0.337 | 6.06e-05
313 K, x2 = 0.424 | 5.94e-05
313 K, x2 = 0.517 | 5.84e-05
313 K, x2 = 0.628 | 5.51e-05
313 K, x2 = 0.715 | 5.3e-05
313 K, x2 = 0.773 | 5.34e-05
313 K, x2 = 0.849 | 5.65e-05
313 K, x2 = 0.901 | 5.98e-05

CC#N [acetonitrile] + O=C=O
313 K
Settings | molar volume [m3/mol]
x2 = 0.044 | 5.19e-05
x2 = 0.073 | 5.25e-05
x2 = 0.093 | 5.33e-05
x2 = 0.168 | 5.24e-05
x2 = 0.241 | 5.11e-05
x2 = 0.312 | 5.1e-05
x2 = 0.381 | 5.18e-05
x2 = 0.449 | 5.07e-05
x2 = 0.523 | 4.98e-05
x2 = 0.598 | 4.96e-05
x2 = 0.688 | 4.9e-05
x2 = 0.77 | 4.87e-05
x2 = 0.834 | 5.08e-05

FC(F)(F)C(F)(F)C(F)(F)C(F)(F)C(F)(F)C(F)(F)F [perfluorohexane] + O=C=O
313 K
Settings | molar volume [m3/mol]
x2 = 0.146 | 0.0001867
x2 = 0.163 | 0.000187
x2 = 0.262 | 0.0001742
x2 = 0.27 | 0.0001732
x2 = 0.339 | 0.0001655
x2 = 0.424 | 0.0001511
x2 = 0.474 | 0.0001448
x2 = 0.547 | 0.0001324
x2 = 0.615 | 0.0001235
x2 = 0.665 | 0.0001165
x2 = 0.721 | 0.0001062
x2 = 0.765 | 9.7e-05
x2 = 0.776 | 9.49e-05
x2 = 0.811 | 9.03e-05
x2 = 0.836 | 9.17e-05

C1CCOC1 [tetrahydrofuran] + O=C=O
Settings | molar volume [m3/mol]
298 K, x2 = 0.132 | 7.08e-05
298 K, x2 = 0.228 | 6.55e-05
298 K, x2 = 0.333 | 6.46e-05
298 K, x2 = 0.451 | 6.2e-05
298 K, x2 = 0.518 | 6.08e-05
298 K, x2 = 0.624 | 5.86e-05
298 K, x2 = 0.736 | 5.64e-05
298 K, x2 = 0.83 | 5.49e-05
298 K, x2 = 0.899 | 5.43e-05
313 K, x2 = 0.098 | 7.75e-05
313 K, x2 = 0.313 | 7.09e-05
313 K, x2 = 0.398 | 6.82e-05
313 K, x2 = 0.489 | 6.53e-05
313 K, x2 = 0.576 | 6.29e-05
313 K, x2 = 0.655 | 6.23e-05
313 K, x2 = 0.733 | 6.02e-05
313 K, x2 = 0.832 | 5.72e-05
313 K, x2 = 0.89 | 6.02e-05
333 K, x2 = 0.165 | 7.45e-05
333 K, x2 = 0.26 | 7.34e-05
333 K, x2 = 0.404 | 6.87e-05
333 K, x2 = 0.539 | 6.6e-05
333 K, x2 = 0.696 | 5.84e-05
333 K, x2 = 0.808 | 6.04e-05
333 K, x2 = 0.85 | 6.29e-05
333 K, x2 = 0.893 | 7.05e-05
